In one experiment the test system is A375 melanoma cells. Nature of the experiment: AlamarBlue assay, A375. The following applies: for Cellular activity in melanoma cells (A375), alamarBlue: Fig.1g, replicates; for IC50: read-out: IC50, cellular activity in A375 (alamarBlue). Type of experiment: cell-based, human. The protocol: (§1) 3. AlamarBlue assay. AlamarBlue was made by resazurin sodium salt (Sigma, Cat
(§2) # 199303) dissolved in PBS.
(§3) NCI-H211, MDA-MB231 and A375 cells were plated in 96-well plates at approximately 30% confluence and left overnight to adhere. In the following day, […]
(§4) of treatment, 10 μl AlamarBlue reagent (0.3 mg/ml) was added to each well, and after 18h, the florescence intensity in each well was measured using a top-reading fluorescent plate reader with excitation at 530 nm and emission at 590 nm. […]
A general note: The colour change of resazurin is a common sign of viable cells or microbes.

The subject of experiment [1] is NCI-H211 small cell lung cancer (SCLC) cells. Nature of the experiment: AlamarBlue assay, NCI-H211. The class given is cell-based. The following applies: for Cellular activity in SCLCs (H211), alamarBlue: Fig.1e, replicates. As to the method: as §1, §2, §3, §4
Experiment [2] relates to MDA-MB231 triple negative breast cancer (TNBC) cells. The experiment can be described thus: AlamarBlue assay, MDA-MB231. The class given is cell-based, human. The following applies: for Cellular activity in TNBCs (MDA-MB231), alamarBlue: Fig.1f, replicates. The protocol: as §1, §2, §3, §4
The next experiment deals with T1, BRD4 (BD1+BD2) (Homo sapiens, UniProt O60885).
T1 construct: purchased BPS 32612
Nature of the experiment: BRD4 (BD1+BD2) TR-FRET binding assay. The following applies: for Biochemical activity against BRD4 (BD1 + BD2): Fig.1d, replicates. From the text:
2. BRD4 binding assay. The inhibitory effects of NHWD-530, NHWD-540, NHWD- […]
(BPS, Cat # 32612) per manufacturer’s instructions. […]

The structures appear in SMILES notation. Values joined by “and” are separate entries in the source; they are usually repeats but may differ in a detail not shown here. Equal entries are not always repeated. Where two headings read alike, the source gives them in different places.

Broadly, the IC50 is the concentration that gives 50% inhibition. Turning to `CCNC(=O)C[C@@H]1N=C(c2ccc(Cl)cc2)c2cc(OC)ccc2-n2c(C)nnc21` [GSK-525762], the “Cellular activity in melanoma cells (A375), alamarBlue” value (“Cellular activity in melanoma cells” for short) is 0.7 and 0.7152 with A375 melanoma cells (concentration(nM) 0.21442, listed as GSK-525672); 2.411 and 2.845 in the experiment on A375 melanoma cells (concentration(nM) 0.31236, listed as GSK-525672); 1.577 and 2.366 in the experiment on A375 melanoma cells (concentration(nM) 0.4103, listed as GSK-525672); 8.146 and 9.5447 in the experiment with A375 melanoma cells (concentration(nM) 0.6032, listed as GSK-525672); 25.5205 and 30.3178 with A375 melanoma cells (concentration(nM) 1.2043, listed as GSK-525672); 60.9618 and 63.2464 in the experiment with A375 melanoma cells (concentration(nM) 1.8024, listed as GSK-525672). In addition, the “Cellular activity in melanoma cells” value was 99.5135 and 98.5975 with A375 melanoma cells (concentration(nM) 2.4, listed as GSK-525672); 100.155 and 100.899 in the experiment with A375 melanoma cells (concentration(nM) 3, listed as GSK-525672). In addition, in the experiment on A375 melanoma cells (Homo sapiens, A-375, nM printed in b8, the picture prints no unit), the IC50 amounted to 35.6 nM.
In the case of `COc1cc2c(cc1-c1c(C)noc1C)ncc1[nH]c(=O)n([C@H](C)c3ccccn3)c12` [I-BET151], the “Cellular activity in melanoma cells” value was 0.1541 and 0.2687 with A375 melanoma cells (concentration(nM) 0.21442); 1.39 and 1.537 in the experiment on A375 melanoma cells (concentration(nM) 0.31236); 1.399 and 1.952 in the experiment on A375 melanoma cells (concentration(nM) 0.4103); 7.8413 and 3 with A375 melanoma cells (concentration(nM) 0.6032); 31.4642 and 32.5943 with A375 melanoma cells (concentration(nM) 1.2043); 46.9054 and 45.198 in the experiment on A375 melanoma cells (concentration(nM) 1.8024). Also, the “Cellular activity in melanoma cells” value in the experiment on A375 melanoma cells (concentration(nM) 2.4) is 80.0356 and 78.8893; with A375 melanoma cells (concentration(nM) 3), 99.9805 and 100.846. For the same compound, in the experiment on A375 melanoma cells (nM), the IC50 was determined as 55.5 nM.
`Cc1nnn(C)c1-c1cnc2c3cc4c(cnn4C)cc3n([C@H](c3ccccc3)C3CCOCC3)c2c1` [NHWD-840]: the “Cellular activity in SCLCs (H211), alamarBlue” value in experiment [1] (concentration 0.0169701) was 11.62 and 22.01; in experiment [1] (concentration 0.0398488), 7.96 and 8.04; in experiment [1] (concentration 0.137272), 3.53 and 13.11; in experiment [1] (concentration 0.614394) it was 11.24 and 2.1; in experiment [1] (concentration 1.09152) it was 18.38 and 12.66; in experiment [1] (concentration 1.56864), 47.24 and 47.49. Moreover, the “Cellular activity in SCLCs (H211), alamarBlue” value is 87.44 and 87.79 in experiment [1] (concentration 2.04576); 95.52 and 94.98 in experiment [1] (concentration 3); 93.3 and 93.73 in experiment [1] (concentration column prints 2.52288). Also, the IC50 in experiment [1] (Homo sapiens, NCI-H211, 72 h, 72 h treatment, nM, read-out: IC50, cellular activity in NCI-H211 (alamarBlue)) stood at 38 ± 1.58 nM; in experiment [2] (Homo sapiens, MDA-MB-231, 72 h, 72 h treatment, nM, read-out: IC50, cellular activity in MDA-MB231 (alamarBlue)) it was 31.6 ± 1.5 nM; on BRD4 (BD1+BD2) (average IC50, nM, read-out: IC50, biochemical activity against BRD4 (BD1 + BD2)), 28.3 ± 1.45 nM. Further, the “Cellular activity in TNBCs (MDA-MB231), alamarBlue” value in experiment [2] (concentration 0.15) is 9.03 and 8.43; in experiment [2] (concentration 0.6), 17.61 and 17.32; in experiment [2] (concentration 1), 35.92 and 25.61; in experiment [2] (concentration 1.5) it was 53.39 and 55.36; in experiment [2] (concentration 2), 70.13 and 73.2; in experiment [2] (concentration 2.5), 91.51 and 91.02. The “Cellular activity in TNBCs (MDA-MB231), alamarBlue” value in experiment [2] (concentration 3) is 94.65 and 95.19; in experiment [2] (concentration -0.3), 6.21 and 5.27; in experiment [2] (concentration -0.9) it was 2.77 and 4.58. Further, the “Biochemical activity against BRD4 (BD1 + BD2)” value on BRD4 (BD1+BD2) (concentration(nM) 0.0021442) was 6.699 and 2.7152; at BRD4 (BD1+BD2) (concentration(nM) 0.061236) it was 2.407 and 5.845; at BRD4 (BD1+BD2) (concentration(nM) 0.103) it was 1.577 and 18.3661; on BRD4 (BD1+BD2) (concentration(nM) 0.59176) it was 2.146 and 9.5447; on BRD4 (BD1+BD2) (concentration(nM) 1.19382), 15.5205 and 30.3178; on BRD4 (BD1+BD2) (concentration(nM) 1.79588), 82.9618 and 83.2464. The “Biochemical activity against BRD4 (BD1 + BD2)” value on BRD4 (BD1+BD2) (concentration(nM) 2.39794) is 99.4664 and 98.6128; at BRD4 (BD1+BD2) (concentration(nM) 3) it was 101.174 and 100.889.

The record behind these values is PMC7156724, “Potent BRD4 inhibitor suppresses cancer cell-macrophage interaction” (Nature Communications, 2020).
